Experimental findings from patent publication US12606520B2, “Calpain-2 inhibitor compounds and methods of treatment” (WESTERN UNIVERSITY OF HEALTH SCIENCES, priority 2020, dated 2026) are described below.

The target in assay [1] is T1, calpain-1 (Mus musculus, UniProt O35350).
T1 sequence (O35350 1-713): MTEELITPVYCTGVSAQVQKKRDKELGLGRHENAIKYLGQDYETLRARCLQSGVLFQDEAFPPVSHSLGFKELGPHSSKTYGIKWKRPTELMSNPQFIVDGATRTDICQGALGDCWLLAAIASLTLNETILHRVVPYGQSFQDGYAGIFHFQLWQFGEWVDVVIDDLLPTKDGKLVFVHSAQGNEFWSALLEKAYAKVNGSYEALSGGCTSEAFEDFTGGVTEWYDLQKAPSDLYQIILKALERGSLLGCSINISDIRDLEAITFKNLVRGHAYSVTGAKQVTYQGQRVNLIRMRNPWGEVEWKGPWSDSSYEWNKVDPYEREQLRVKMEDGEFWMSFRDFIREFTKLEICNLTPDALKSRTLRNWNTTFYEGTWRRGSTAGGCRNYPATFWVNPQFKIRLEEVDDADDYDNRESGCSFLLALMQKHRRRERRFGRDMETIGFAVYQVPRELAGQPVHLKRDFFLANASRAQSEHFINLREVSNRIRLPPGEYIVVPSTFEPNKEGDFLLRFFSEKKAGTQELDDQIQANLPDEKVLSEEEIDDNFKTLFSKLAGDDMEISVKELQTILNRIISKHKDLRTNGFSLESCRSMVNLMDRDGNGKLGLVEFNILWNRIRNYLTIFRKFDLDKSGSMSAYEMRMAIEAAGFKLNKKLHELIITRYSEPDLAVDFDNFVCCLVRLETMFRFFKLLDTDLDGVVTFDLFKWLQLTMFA
T1 sequence (O88456 1-268 partner): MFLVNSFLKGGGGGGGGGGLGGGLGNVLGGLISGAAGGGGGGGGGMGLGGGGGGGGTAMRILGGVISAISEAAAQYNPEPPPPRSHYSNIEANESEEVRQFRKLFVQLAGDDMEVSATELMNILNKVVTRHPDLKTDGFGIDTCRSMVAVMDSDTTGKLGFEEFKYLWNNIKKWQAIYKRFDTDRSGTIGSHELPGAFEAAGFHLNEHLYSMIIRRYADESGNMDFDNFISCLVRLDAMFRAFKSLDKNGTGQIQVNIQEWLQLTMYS
In words: Calpain-1 activity in WT mouse cerebellar homogenate (20 μM Ca2+), Suc-Leu-Tyr-AMC cleavage. The class given is biochemical. More on the design: from tissue; host or cells: wild-type mouse cerebellar (P2) homogenate. The note with it: 20 μM calcium, read-out: IC50, 20 μM Ca^2+ (Calpain-1). As for the experimental part:
(§1) Cerebellar homogenates from wild-type (WT) or calpain-1 Knock-out (KO) mice were incubated with 20 μM calcium to activate calpain-1 or with 2 mM calcium to activate calpain-2, respectively, and increasing concentrations of NA112 (12). Calpain activity was measured by the cleavage of Succinyl-Leu-Tyr-7-amino-4-methylcoumarin (Suc-Leu-Tyr-AMC), resulting in increased fluorescence. Activity is normalized to the value measured in the presence of vehicle (DMSO).
(§2) WT or calpain-1 KO mouse cerebellar P2 homogenate (crude synaptosomal fraction) were used for measuring inhibitory activity of compounds against the mouse endogenous calpain-1/-2. Each reaction contains 100 ul of WT or calpain-1 KO mouse cerebellar P2 homogenate+0, 20 or 2000 uM Ca^2++0-10,000 nM NA184.
Calpain-1 activity=calpain activity under 20 uM Ca^2+ in WT mice

In the next assay the target is T2, calpain-2 (Mus musculus, UniProt O08529).
T2 sequence (O08529 1-700): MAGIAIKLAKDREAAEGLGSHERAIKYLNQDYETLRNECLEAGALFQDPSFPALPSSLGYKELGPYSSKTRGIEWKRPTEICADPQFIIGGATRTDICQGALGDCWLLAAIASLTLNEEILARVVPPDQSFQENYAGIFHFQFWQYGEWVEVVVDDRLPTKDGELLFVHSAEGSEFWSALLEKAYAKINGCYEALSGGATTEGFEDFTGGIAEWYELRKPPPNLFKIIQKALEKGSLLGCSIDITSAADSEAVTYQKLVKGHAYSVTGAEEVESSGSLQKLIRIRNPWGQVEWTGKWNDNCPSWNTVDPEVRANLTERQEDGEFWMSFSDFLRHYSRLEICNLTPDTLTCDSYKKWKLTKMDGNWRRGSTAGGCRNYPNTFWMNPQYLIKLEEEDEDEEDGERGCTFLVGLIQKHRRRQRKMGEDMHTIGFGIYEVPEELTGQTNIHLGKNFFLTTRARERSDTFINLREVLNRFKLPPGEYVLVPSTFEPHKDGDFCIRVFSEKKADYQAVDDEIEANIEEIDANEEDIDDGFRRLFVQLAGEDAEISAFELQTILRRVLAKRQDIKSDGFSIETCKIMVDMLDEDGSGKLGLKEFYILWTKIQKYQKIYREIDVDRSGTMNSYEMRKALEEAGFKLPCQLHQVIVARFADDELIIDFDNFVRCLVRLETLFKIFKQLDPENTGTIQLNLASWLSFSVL
T2 sequence (O88456 1-268 partner): T1 sequence (O88456 1-268 partner)
Description: Calpain-2 activity in calpain-1 KO mouse cerebellar homogenate (2 mM Ca2+), Suc-Leu-Tyr-AMC cleavage. Further details: Calpain-2 activity=calpain activity under 2000 uM Ca^2+ in calpain-1 KO mice; from tissue; host or cells: calpain-1 knock-out mouse cerebellar (P2) homogenate. In kind it is biochemical. As for the experimental part: as §1, §2
Calpain-2 activity=calpain activity under 2000 uM Ca^2+ in calpain-1 KO mice

For assay [2], the target named is T1, calpain-1. Description: Calpain-1 activity in brain after TBI in mice. The class given is in vivo. More on the design: from tissue; host or cells: mouse brain after TBI. The note with it: 1 mg/kg i.p., 24 h after TBI. As for the experimental part: We also performed the same model of TBI in male and female mice and in male and female rats. In all cases, NA184 was injected i.p. at 1 mg/kg. For the rat experiments, NA184 was injected twice at 1 h and 8 h after TBI. Animals were sacrificed 24 h after TBI and calpain activity was assayed in brain and cell death was analyzed in cortex. […] In addition, there was a highly significant correlation between calpain-2 activity and cell death in rats (FIG. 23). R^2 was 0.61 and p<0.005.

With `CCC(NC(=O)[C@H](CC(C)C)NC(=O)NCc1ccccc1)C(=O)C(=O)NCc1cc(OC)cc(OC)c1` (mixture of isomers) [NA112, (2S)-2-(3-benzylureido)-N-(1-((3,5-dimethoxybenzyl)amino)-1,2-dioxopentan-3-yl)-4-methylpentanamide], the half-inhibitory concentration (IC50) at calpain-1 [1] came out at 1380 nM; on calpain-2 (read-out: IC50, 2000 μM Ca^2+ (calpain-1 KO), calpain-1 KO mouse cerebellar homogenate, 2 mM calcium) it was 106 nM.

Take `CCC(NC(=O)[C@H](CC(C)C)NC(=O)NCc1ccccc1)C(=O)C(=O)NCc1cccc(Cl)c1OC` (stereo partly drawn) [NA184, (2S)-2-(3-benzylureido)-N-(1-((3-chloro-2-methoxybenzyl)amino)-1,2-dioxopentan-3-yl)-4-methylpentanamide]: the “Calpain-1 inhibition in brain, male and female mice” value on calpain-1 [2] is on record as “not calpain-1”. Also, the “Ratio (IC50 calpain-1/calpain-2)” value at calpain-2 (mouse cerebellar P2 homogenate) is 21.

In general, IC50 refers to the midpoint of a concentration-inhibition curve.
